Values after ≈ are worked out from the molar mass of the structure shown. Where two headings read alike, the source gives them in different places.
How the values were obtained:
[1] = tested on: V79 (Chinese Hamster Lung); assay: Cytotoxicity test (Alamar blue), V79 cells (Table 23); type: cell-based; conditions: minimum drug concentration inhibiting Alamar blue color change, 3 hrs drug exposure, then 96 hrs incubation
Protocol: (§1) Compounds were evaluated for their cytotoxic potential against two […] viz. […] Freshly grown cells were distributed in microtiter plates at a cell density of 10^5-10^6 cells/well and allowed to adhere and form monolayer by incubating the microtiter plate at 37° C. for 24 hrs. […] Following 3 hrs. of drug exposure, cells were washed with D-MEM and incubated further for 96 hrs. Cytotoxic effects of drugs were monitored through daily microscopic observation and by ascertaining the metabolic status through redox indicator Alamar blue. Healthy actively metabolising cells bring about colour change of Alamar blue from blue to pink within an overnight incubation. Cytotoxic drugs inhibit this reaction resulting into blue coloured wells. Minimum drug concentration inhibiting Alamar blue color change i.e. resulting into blue coloured wells for a given drug is considered cytotoxic concentration.

J 744 (mouse macrophage) = assay: Cytotoxicity test (Alamar blue), J 744 cells (Table 23); type: cell-based; conditions: minimum drug concentration inhibiting Alamar blue color change; 3 hrs drug exposure, then 96 hrs incubation; J 744 mouse macrophage cells
Protocol: as §1

[2] = tested on: Trovafloxacin-Resistant and Vancomycin-Resistant Enterococci; assay: In-vitro antimicrobial test, MIC by agar dilution (NCCLS): enterococci (Table 19); type: cell-based; conditions: for MIC: read-out: MIC, V R E 336
From the text: The comparative antimicrobial activity of representative compounds of the invention and reference compounds against various sensitive and resistant microorganisms is given in Tables 17 to 20. The test method was in accordance with the standard NCCLS protocol (Methods for Dilution Antimicrobial Susceptibility Tests for Bacteria that grow Aerobicially, Approved Standards, M7-A5, Fifth Edition, January 2000).
(§2) The antibacterial activities (minimum inhibitory concentration: MIC, mcg/ml) were determined by using the two-fold serial agar dilution method recommended by NCCLS. The media used for preculture and main culture were Tryptic Soya broth (Difco) and Mueller Hinton medium (Difco), respectively. The Mueller Hinton agar was supplemented with 5% sheep blood for streptococci. Overnight cultures were diluted with buffered saline (pH 7.2) to the final cell density of 5×10^6-10^7 CFU/ml, and each bacterial suspension was applied with a replicator (Denley's multipoint inoculator, UK) onto a series of Mueller-Hinton agar plates containing antibacterial agents at various concentrations. Final inoculum was approximately 10^4 CFU/spot. The plates were incubated for 18 hrs at 37° C. The MIC was defined as the lowest concentration of an antibacterial agent that inhibits the development of visible microbial growth on agar.

[3] = tested on: Fluoroquinolone Sensitive Strains; assay: In-vitro antimicrobial test, MIC by two-fold serial agar dilution (NCCLS): fluoroquinolone sensitive strains (Table 17); type: cell-based
Protocol: (§3) The test method was in accordance with the standard NCCLS protocol (Methods for Dilution Antimicrobial Susceptibility Tests for Bacteria that grow Aerobicially, Approved Standards, M7-A5, Fifth Edition, January 2000).
as §2

[4] = tested on: Fluoroquinolone-Resistant Strains; assay: In-vitro antimicrobial test, MIC by agar dilution (NCCLS): fluoroquinolone-resistant strains (Table 18); type: cell-based
Protocol: as §3, §2

[5] = Phototoxicity, oral dose and UVA exposure, mice; conditions: UVA 4 hours for 4 consecutive days, dose causing ear erythema and oedema
Protocol: The stock solutions for different doses were prepared freshly on the day of experimentation. Appropriate concentration of each dose was chosen to give a constant dosage volume of 0.3-0.4 ml/20 g body weight of mouse. The treated mice were exposed to UVA light source immediately after dosing for 4 hours and for 4 consecutive days. The mean light intensity in the UVA chamber was adjusted to 0.9-1.2 mW/cm^2. The total irradiation dose was approximately 18 Joules/cm^2/day. A phototoxic dose is one which causes ear erythema and oeadema.

[6] = tested on: Multidrug-Resistant (MDR) Pneumococcal Infections; assay: In-vivo antimicrobial test: systemic infection model (mouse septicemia), oral ED50 (Table 22); parameters: species or system Swiss mice; conditions: oral 1 hour and 5 hours post-infection, survival on day 7, strain resistant to β-lactams, macrolides and fluoroquinolones
Protocol: The in vivo efficacy was studied through mouse septicemia model of infection in Swiss male and female mice (4 weeks old, 20+2 g weight) using 6 animals in each group. Infective organisms were inoculated intraperitonially. Compound were administered by oral route 1 hour and 5 hours post-infection. […] Appropriate comparators were included in the study.

MRSA 5027 = type: cell-based
[7] = tested on: Clinical Isolate MRSA 5076 with Mutations in DNA Gyrase and Topoisomerase IV as well as bearing an Efflux Pump; type: cell-based
Protocol: as §3, §2

[8] = vancomycin-resistant Enterococcus faecium 336
[9] = Enterococcus faecalis, ATCC29212, E. faecalis ATCC 29212, read-out: MIC, E. faecalis ATCC 29212

| SMILES | Cytotoxic concentration, V 79 CHL [1] [µg/mL] | Cytotoxic concentration, J 744 Macrophage (J 744 (mouse macrophage)) [µg/mL] | MIC, Cipro^R S. sanguis 941 [4] [µg/mL] | MIC, FQ^R S. pneumoniae 718 ([4]; FQ^R S. pneumoniae 718) [µg/mL] | MIC, MRSA 032 ([4]; MRSA 032) [µg/mL] | phototoxic dose [5] | ED50 p.o. MDR S. pneumoniae 718 [6] [mg/kg] | MIC, E. coli ATCC 25922 [3] [µg/mL] | also measured |
| --- | --- | --- | --- | --- | --- | --- | --- | --- | --- |
| Cc1c(N2CC[C@H](O)[C@H](C)C2)c(F)cc2c(=O)c(C(=O)O)cn(C3CC3)c12 (relative stereo) [Compound 85, cis-1-Cyclopropyl-6-fluoro-8-methyl-7-(4-hydroxy-3-methyl-1-piperidinyl)-1,4-dihydro-4-oxo-quinoline-3-carboxylic acid] | >1000 | >1000 | – | – | – | – | – | – | MIC [2, 8]: 3.12 µg/mL (≈ 8.33 µM); MIC [3, 9]: 0.1 µg/mL (≈ 0.267 µM); MIC ([3]; S. sanguis ATCC 10556 (Viridans Streptococci), read-out: MIC, S. sanguis ATCC 10556): 0.025 µg/mL (≈ 0.0668 µM) |
| COc1c(N2CCC(N)C(C)(C)C2)c(F)cc2c(=O)c(C(=O)O)cn(C3CC3)c12 (single isomer, unassigned; (+)) [Compound 19, (+)-1-Cyclopropyl-6-fluoro-1,4-dihydro-8-mehtoxy-7-(4-amino-3,3-dimethyl-1-piperidinyl)-4-oxo-quinoline-3-carboxylic acid] | – | – | 0.2 (≈ 0.496 µM) | 0.4 (≈ 0.991 µM) | 0.8 (≈ 1.98 µM) | greater than 500 mg/kg | 20 | 0.2 (≈ 0.496 µM) | MIC, Cipro^R S. mitis 938 ([4]; Cipro^R S. mitis 938): 0.8 µg/mL (≈ 1.98 µM) |
| C[C@@H]1CN(c2c(F)c(N)c3c(=O)c(C(=O)O)cn(C4CC4)c3c2F)C[C@H](C)N1 [sparfloxacin, reference compound] | – | – | – | – | – | 25 mg/kg | – | – | – |
| COc1c(N2CCC(NC(=O)OC(C)(C)C)C(C)(C)C2)c(F)cc2c(=O)c(C(=O)O)cn(C3CC3)c12 (stereo not shown) [Compound 23, 1-Cyclopropyl-6-fluoro-1,4-dihydro-8-methoxy-7-(4-t-butyloxycarbonylamino-3,3-dimethyl-1-piperidinyl)-4-oxo-quinoline-3-carboxylic acid] | – | – | – | – | – | – | – | – | melting point: 218 to 220 °C |
| COc1c(N2CCC(N)C(C)(C)C2)c(F)cc2c(=O)c(C(=O)O)cn(C3CC3)c12 (racemic) [Compound 18, (±)-1-Cyclopropyl-6-fluoro-1,4-dihydro-8-mehtoxy-7-(4-amino-3,3-dimethyl-1-piperidinyl)-4-oxo-quinoline-3-carboxylic acid] | – | – | 0.4 (≈ 0.991 µM) | 0.8 (≈ 1.98 µM) | 0.8 (≈ 1.98 µM) | greater than 500 mg/kg | 30 | 0.2 (≈ 0.496 µM) | MIC against MRSA 5027 after 10 passage in drug containing medium (MRSA 5027; after 10 passages): 0.4 µg/mL (≈ 0.991 µM); MIC against MRSA 5027, initially (MRSA 5027; before passages in drug-containing medium): 0.4 µg/mL (≈ 0.991 µM) |
| Cc1c(N2CC[C@@H](O)[C@H](C)C2)c(F)cc2c(=O)c(C(=O)O)cn(C3CC3)c12 (relative stereo) [Compound 86, trans-1-Cyclopropyl-6-fluoro-8-methyl-7-(4-hydroxy-3-methyl-1-piperidinyl)-1,4-dihydro-4-oxo-quinoline-3-carboxylic acid] | >1000 | >1000 | – | – | – | – | – | – | MIC, MRSA 5076 + efflux inhibitor reserpine [7]: 0.2 µg/mL; melting point: 214 to 216 °C; MIC [2, 8]: 3.12 µg/mL (≈ 8.33 µM); MIC [3, 9]: 0.05 µg/mL (≈ 0.134 µM) |
| COc1c(N2CCC(N)C(C)(C)C2)c(F)cc2c(=O)c(C(=O)O)cn(C3CC3)c12 (single isomer, unassigned; (-)) [Compound 20, (−)-1-Cyclopropyl-6-fluoro-1,4-dihydro-8-mehtoxy-7-(4-amino-3,3-dimethyl-1-piperidinyl)-4-oxo-quinoline-3-carboxylic acid] | – | – | 0.4 (≈ 0.991 µM) | 0.8 (≈ 1.98 µM) | 0.8 (≈ 1.98 µM) | greater than 500 mg/kg | 50 | 0.2 (≈ 0.496 µM) | – |
| Cc1c(N2CCC(N)C(C)(C)C2)c(F)cc2c(=O)c(C(=O)O)cn(C3CC3)c12 (single isomer, unassigned; (-)) [Compound 93, (−)-1-Cyclopropyl-6-fluoro-1,4-dihydro-8-methyl-7-(4-amino-3,3-dimethyl-1-piperidinyl)-4-oxo-quinoline-3-carboxylic acid] | 250 | 1000 | – | – | – | – | – | – | MIC ([4]; Staphylococcus aureus, MRSA, MRSA 032, read-out: MIC, MRSA 032): 0.4 µg/mL (≈ 1.03 µM); MIC ([4]; Streptococcus mitis, Cipro^R S. mitis 938, read-out: MIC, Cipro^R S. mitis 938): 0.8 µg/mL (≈ 2.06 µM); MIC ([4]; Streptococcus pneumoniae, FQ^R S. pneumoniae 718, read-out: MIC, FQ^R S. pneumoniae 718): 0.4 µg/mL (≈ 1.03 µM); MIC ([3]; Pseudomonas aeruginosa, P. aeruginosa 27853, read-out: MIC, P. aeruginosa 27853): 1.56 µg/mL (≈ 4.03 µM) |
| Cc1c(N2CCC(O)C(C)C2)c(F)cc2c(=O)c(C(=O)O)cn(C3CC3)c12 (mixture of isomers) [Compound 84, cis/trans-1-Cyclopropyl-6-fluoro-8-methyl-7-(4-hydroxy-3-methyl-1-piperidinyl)-1,4-dihydro-4-oxo-quinoline-3-carboxylic acid] | – | – | 0.4 | 0.8 | 0.2 | – | – | 0.2 | MIC, Cipro^R S. mitis 938 ([4]; Cipro^R S. mitis 938): 0.4 µg/mL; MIC, Trova-Resist MRSE 110 ([2]; Trovafloxacin-resistant methicillin-resistant S. epidermidis 110): 0.4 µg/mL; MIC, V R E 336 [2, 8]: 3.12 µg/mL; MIC, E. faecalis ATCC 29212 ([3]; E. faecalis ATCC 29212): 0.05 µg/mL; MIC, MSSA ATCC 25923 ([3]; MSSA ATCC 25923): 0.003 µg/mL; MIC, P. aeruginosa 27853 ([3]; P. aeruginosa 27853): 3.12 µg/mL; MIC, S. pneumoniae ATCC 49619 ([3]; S. pneumoniae ATCC 49619): 0.025 µg/mL; MIC, S. sanguis ATCC 10556 ([3]; S. sanguis ATCC 10556 (Viridans Streptococci)): 0.05 µg/mL |

From patent US6964966B2, “Generation triple-targeting, chiral, broad-spectrum antimicrobial 7-substituted piperidino-quinolone carboxylic acid derivatives, their preparation, compositions and use as medicaments” (Wockhardt Limited, priority 2001, dated 2005)
